From article PMC11472320, “Computationally Driven Discovery of a BCR-ABL1 Kinase Inhibitor with Activity in Multidrug-Resistant Chronic Myeloid Leukemia” (Journal of Medicinal Chemistry, 2024)
pIC50: −log10 of the molar value. Several values for one entry are separate records, joined by “and”; a condition that tells them apart may be missing. Identical values can stand only once. Like-named read-outs stand apart in the source and are kept apart here.

Experiments:
MDCKII-MDR1 cells [1] = test: MDCKII-MDR1 permeability; conditions: for Recovery% (BL-AP): Table S7; for MDCKII-MDR1 Efflux Ratio: n = 2
Ph+ CML = test: Activity in Ph+ CML (Figure 2B annotation); assay type: cell-based; conditions: annotation in Figure 2B
[2] = Metabolic stability in hepatocytes; assay type: in vitro ADME, human; conditions: for hepatocyte CLint: both sexes, read-out: HEPClint (H); for hepatocyte CLint / t1/2 (H): human hepatocytes
Source text: Metabolic stability in hepatocytes
Table S4. Hepatocyte details used in the hepatocyte stability assay.
Human Hepatocytes, Mixed-Gender BiolVT (Cat No. X008001)
Mouse Hepatocytes, Male-Gender BiolVT (Cat No. M005052)

in vitro [3] = conditions: dog, MDCK-MDR1
MDR1 = test: in vitro; conditions: dog, MDCK-MDR1
MDR1 (P-gp) = test: in vitro; conditions: dog, MDCK-MDR1
Lipophilicity logD7.4 = assay type: physicochemical; conditions: pH 7.4
in vitro [4] = conditions: human, Caco-2
Aqueous solubility = assay type: physicochemical; conditions: pH 7.4
[5] = Abraham ANMR value by NMR (CDCl3 vs DMSO-d6); assay type: physicochemical
Source text: Previously, intramolecular N–H–F hydrogen bonds (HBs) have been proposed as a strategy to reduce P-gp-mediated efflux and improve passive permeability, as highlighted in the discovery of the brain-penetrant EGFR inhibitor, AZD-3759 (Figure 2A).[37]−[40] […] Consistent with this work, we conducted an NMR study of the EGFR inhibitor 7a and the BCR-ABL1 inhibitor 8a in deuterated chloroform (CDCl3) and in the more polar, HB-accepting dimethyl sulfoxide (DMSO-d6). […] This finding is further supported by the lack of ^1JNH-F coupling (≤1 Hz) in 7a and 8a, as contrasted with bona fide intramolecular HBs to fluorine, which typically have ^1JNH-F coupling constants >10 Hz as exemplified by 9 with its ^1JNH-F of 19.1 Hz.[41],[43]

Caco-2 cells = test: Caco-2 permeability; conditions: for Recovery% (BL-AP) / efflux ratio: Table S9
cSRC wt = cSRC wt (Homo sapiens, UniProt P12931); test: KinaseProfiler enzymatic radiometric kinase assay
BCR-ABL1 wt = BCR-ABL1 wt (Homo sapiens, UniProt P00519); test: KinaseProfiler enzymatic radiometric kinase assay; conditions: read-out: Kinase IC50 BCR-ABL1 wt; [ATP] = 10 µM, n = 2
mutant BCR-ABL1 kinases = test: Biochemical kinase inhibition, summary statements; set-up: species or system human; conditions: read-out: IC50 against mutant BCR-ABL1 kinases
[6] = Plasma protein binding by equilibrium dialysis; assay type: in vitro ADME; conditions: human plasma
[7] = set-up: method as in earlier work; conditions: human plasma; cited from earlier work
[8] = pH 7.4; cited from earlier work
MDCKII-MDR1 cells [9] = conditions: cited from earlier work
[10] = pH 7.4; cited from earlier work; remark: listed apart in the source
P-glycoprotein (P-gp) = conditions: Figure 1A; cited from earlier work
[11] = cited from earlier work
[12] = cited from earlier work; remark: listed apart in the source
[13] = cited from earlier work; remark: listed apart in the source
PRKCQ = target: T1, PRKCQ (Homo sapiens, UniProt Q04759); test: KINOMEScan; assay type: binding; conditions: read-out: Percent Control
T1 construct: purchased Eurofins DiscoverX (KINOMEscan)

PRKD1 = target: T2, PRKD1 (Homo sapiens, UniProt Q15139); test: KINOMEScan; assay type: binding; conditions: read-out: Percent Control
T2 construct: purchased Eurofins DiscoverX (KINOMEscan)

PRKCH = target: T3, PRKCH (Homo sapiens, UniProt P24723); test: KINOMEScan; assay type: binding; conditions: read-out: Percent Control
T3 construct: purchased Eurofins DiscoverX (KINOMEscan)

PFPK5(P.falciparum) = target: T4, PFPK5(P.falciparum) (Plasmodium falciparum, UniProt P61075); test: KINOMEScan; assay type: binding; conditions: read-out: Percent Control
T4 construct: purchased Eurofins DiscoverX (KINOMEscan)

PRKCI = target: T5, PRKCI (Homo sapiens, UniProt P41743); test: KINOMEScan; assay type: binding; conditions: read-out: Percent Control
T5 construct: purchased Eurofins DiscoverX (KINOMEscan)

PRP4 = target: T6, PRP4 (Homo sapiens, UniProt Q13523); test: KINOMEScan; assay type: binding; conditions: read-out: Percent Control
T6 construct: purchased Eurofins DiscoverX

PRKD3 = target: T7, PRKD3 (Homo sapiens, UniProt O94806); test: KINOMEScan; assay type: binding; conditions: read-out: Percent Control
T7 construct: purchased Eurofins DiscoverX (KINOMEscan)

PRKCD = target: T8, PRKCD (Homo sapiens, UniProt Q05655); test: KINOMEScan; assay type: binding; conditions: read-out: Percent Control
T8 construct: purchased Eurofins DiscoverX (KINOMEscan)

CDC2L5 = target: T9, CDC2L5 (Homo sapiens, UniProt Q14004); test: KINOMEScan; assay type: binding; conditions: read-out: Percent Control
T9 construct: purchased Eurofins DiscoverX (KINOMEscan)

PFCDPK1(P.falciparum) = target: T10, PFCDPK1(P.falciparum) (Plasmodium falciparum, UniProt P62344); test: KINOMEScan; assay type: binding; conditions: read-out: Percent Control
T10 construct: purchased Eurofins DiscoverX (KINOMEscan)

PRKCE = target: T11, PRKCE (Homo sapiens, UniProt Q02156); test: KINOMEScan; assay type: binding; conditions: read-out: Percent Control
T11 construct: purchased Eurofins DiscoverX (KINOMEscan)

PKNB(M.tuberculosis) = target: T12, PKNB(M.tuberculosis) (Mycobacterium tuberculosis, UniProt P9WI81); test: KINOMEScan; assay type: binding; conditions: read-out: Percent Control
T12 construct: purchased Eurofins DiscoverX (KINOMEscan)

T3 sequence (P24723 whole entry): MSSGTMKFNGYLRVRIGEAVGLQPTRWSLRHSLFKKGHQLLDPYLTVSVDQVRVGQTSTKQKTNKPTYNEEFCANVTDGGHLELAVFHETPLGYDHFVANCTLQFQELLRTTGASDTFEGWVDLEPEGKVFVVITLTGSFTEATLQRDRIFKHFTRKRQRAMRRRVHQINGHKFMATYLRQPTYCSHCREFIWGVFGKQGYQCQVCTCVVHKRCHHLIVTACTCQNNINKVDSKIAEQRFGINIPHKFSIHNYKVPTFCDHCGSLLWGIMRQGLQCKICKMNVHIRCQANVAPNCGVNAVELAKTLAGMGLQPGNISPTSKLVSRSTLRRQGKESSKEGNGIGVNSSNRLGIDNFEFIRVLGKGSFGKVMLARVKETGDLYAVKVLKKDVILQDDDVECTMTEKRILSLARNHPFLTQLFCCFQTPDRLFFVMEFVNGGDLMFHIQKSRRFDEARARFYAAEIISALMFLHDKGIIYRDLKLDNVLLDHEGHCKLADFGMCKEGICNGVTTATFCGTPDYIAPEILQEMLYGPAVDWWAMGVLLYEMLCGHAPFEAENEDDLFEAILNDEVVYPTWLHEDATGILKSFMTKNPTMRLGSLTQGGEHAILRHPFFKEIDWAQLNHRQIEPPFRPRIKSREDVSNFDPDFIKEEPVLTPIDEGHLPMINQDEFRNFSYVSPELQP
T2 sequence (Q15139 whole entry): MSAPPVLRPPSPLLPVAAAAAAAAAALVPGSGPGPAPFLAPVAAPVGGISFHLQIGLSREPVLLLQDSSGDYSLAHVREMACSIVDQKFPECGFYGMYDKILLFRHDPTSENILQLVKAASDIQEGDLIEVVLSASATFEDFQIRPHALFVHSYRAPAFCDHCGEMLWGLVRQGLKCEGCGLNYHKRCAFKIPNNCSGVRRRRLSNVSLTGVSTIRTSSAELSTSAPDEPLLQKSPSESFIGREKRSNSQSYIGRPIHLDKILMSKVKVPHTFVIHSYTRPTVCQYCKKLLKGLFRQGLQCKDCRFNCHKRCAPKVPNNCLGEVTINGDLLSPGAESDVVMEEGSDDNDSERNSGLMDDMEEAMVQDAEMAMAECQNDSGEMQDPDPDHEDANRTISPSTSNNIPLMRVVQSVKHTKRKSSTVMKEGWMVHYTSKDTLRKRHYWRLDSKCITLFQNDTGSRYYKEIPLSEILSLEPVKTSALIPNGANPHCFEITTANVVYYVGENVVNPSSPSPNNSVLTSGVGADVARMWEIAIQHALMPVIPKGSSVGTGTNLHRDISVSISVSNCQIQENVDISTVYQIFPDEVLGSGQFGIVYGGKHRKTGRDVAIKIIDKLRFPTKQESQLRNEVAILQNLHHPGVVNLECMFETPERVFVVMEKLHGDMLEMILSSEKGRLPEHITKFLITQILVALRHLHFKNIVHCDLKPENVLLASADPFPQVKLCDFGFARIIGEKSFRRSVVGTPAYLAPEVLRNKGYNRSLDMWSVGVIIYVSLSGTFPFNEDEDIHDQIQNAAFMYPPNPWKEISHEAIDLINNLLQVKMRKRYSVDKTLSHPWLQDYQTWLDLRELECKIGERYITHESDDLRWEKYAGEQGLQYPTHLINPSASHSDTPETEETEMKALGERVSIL
Sequence of cSRC wt (P12931 whole entry): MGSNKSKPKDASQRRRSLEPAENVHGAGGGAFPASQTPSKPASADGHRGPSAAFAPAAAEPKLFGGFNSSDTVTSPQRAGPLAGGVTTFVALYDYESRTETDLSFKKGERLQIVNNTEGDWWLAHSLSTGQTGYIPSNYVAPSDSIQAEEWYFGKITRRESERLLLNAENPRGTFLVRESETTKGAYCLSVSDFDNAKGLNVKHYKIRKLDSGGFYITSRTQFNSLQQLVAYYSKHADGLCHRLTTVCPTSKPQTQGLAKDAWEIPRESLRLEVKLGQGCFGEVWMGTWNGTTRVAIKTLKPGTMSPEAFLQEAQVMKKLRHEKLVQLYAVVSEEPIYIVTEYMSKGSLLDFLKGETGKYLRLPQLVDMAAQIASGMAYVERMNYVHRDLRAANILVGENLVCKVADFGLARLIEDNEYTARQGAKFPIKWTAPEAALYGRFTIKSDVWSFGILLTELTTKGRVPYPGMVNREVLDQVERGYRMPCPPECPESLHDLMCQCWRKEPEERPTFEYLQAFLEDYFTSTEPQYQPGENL
T10 sequence (P62344 whole entry): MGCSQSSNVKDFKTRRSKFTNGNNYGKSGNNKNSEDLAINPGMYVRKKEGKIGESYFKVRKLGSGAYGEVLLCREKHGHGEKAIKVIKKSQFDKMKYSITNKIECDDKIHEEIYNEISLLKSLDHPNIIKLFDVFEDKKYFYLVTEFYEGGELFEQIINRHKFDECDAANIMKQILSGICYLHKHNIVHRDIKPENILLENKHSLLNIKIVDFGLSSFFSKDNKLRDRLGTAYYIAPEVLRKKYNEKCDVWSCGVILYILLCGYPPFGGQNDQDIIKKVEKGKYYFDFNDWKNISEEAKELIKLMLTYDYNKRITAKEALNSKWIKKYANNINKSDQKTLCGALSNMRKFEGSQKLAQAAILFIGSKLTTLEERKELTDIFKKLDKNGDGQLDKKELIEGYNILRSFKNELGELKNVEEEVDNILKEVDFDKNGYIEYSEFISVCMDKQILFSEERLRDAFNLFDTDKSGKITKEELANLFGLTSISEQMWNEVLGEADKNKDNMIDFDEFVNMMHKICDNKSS
T11 sequence (Q02156 whole entry): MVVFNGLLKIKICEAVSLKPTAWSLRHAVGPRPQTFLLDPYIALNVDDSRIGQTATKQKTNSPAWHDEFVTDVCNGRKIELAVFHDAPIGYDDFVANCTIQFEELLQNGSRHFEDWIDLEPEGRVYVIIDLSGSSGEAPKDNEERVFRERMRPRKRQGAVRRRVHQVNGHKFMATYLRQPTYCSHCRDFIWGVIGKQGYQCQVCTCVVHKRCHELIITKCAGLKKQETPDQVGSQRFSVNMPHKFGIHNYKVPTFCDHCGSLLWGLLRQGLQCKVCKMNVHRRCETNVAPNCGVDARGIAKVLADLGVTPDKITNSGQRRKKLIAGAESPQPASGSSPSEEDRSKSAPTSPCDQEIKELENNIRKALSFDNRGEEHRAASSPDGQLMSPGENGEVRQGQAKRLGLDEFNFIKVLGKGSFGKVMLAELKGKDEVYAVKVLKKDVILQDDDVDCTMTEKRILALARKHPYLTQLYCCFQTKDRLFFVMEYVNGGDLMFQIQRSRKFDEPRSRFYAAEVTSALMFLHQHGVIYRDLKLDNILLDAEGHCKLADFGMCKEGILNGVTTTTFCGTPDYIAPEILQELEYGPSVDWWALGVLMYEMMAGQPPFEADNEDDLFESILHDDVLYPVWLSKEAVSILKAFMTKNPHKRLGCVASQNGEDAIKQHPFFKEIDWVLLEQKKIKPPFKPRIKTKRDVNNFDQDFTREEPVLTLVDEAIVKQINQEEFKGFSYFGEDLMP
T7 sequence (O94806 whole entry): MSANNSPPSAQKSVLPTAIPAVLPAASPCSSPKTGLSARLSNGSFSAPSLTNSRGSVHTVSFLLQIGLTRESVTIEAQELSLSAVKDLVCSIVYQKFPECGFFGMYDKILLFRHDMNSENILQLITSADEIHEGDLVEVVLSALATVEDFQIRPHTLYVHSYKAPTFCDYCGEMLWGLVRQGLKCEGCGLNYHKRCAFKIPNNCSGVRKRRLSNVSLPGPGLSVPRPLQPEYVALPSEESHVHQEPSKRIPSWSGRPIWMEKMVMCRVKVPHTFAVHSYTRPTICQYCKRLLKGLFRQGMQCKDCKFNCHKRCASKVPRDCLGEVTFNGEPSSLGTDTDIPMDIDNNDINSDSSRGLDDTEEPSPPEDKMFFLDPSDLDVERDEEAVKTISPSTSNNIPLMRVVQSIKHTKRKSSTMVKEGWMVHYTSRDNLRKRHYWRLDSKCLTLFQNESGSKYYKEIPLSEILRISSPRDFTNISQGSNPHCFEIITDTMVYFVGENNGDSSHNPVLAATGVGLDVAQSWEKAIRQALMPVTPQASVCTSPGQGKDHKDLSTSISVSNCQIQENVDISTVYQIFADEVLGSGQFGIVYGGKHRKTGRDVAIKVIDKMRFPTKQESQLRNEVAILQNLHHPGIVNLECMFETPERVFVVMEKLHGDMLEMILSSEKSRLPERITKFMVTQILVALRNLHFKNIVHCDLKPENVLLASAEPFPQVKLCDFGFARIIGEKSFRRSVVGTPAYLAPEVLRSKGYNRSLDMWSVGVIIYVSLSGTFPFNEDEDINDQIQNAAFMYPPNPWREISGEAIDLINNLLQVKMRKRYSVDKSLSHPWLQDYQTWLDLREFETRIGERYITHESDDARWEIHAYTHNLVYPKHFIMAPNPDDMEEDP
T5 sequence (P41743 whole entry): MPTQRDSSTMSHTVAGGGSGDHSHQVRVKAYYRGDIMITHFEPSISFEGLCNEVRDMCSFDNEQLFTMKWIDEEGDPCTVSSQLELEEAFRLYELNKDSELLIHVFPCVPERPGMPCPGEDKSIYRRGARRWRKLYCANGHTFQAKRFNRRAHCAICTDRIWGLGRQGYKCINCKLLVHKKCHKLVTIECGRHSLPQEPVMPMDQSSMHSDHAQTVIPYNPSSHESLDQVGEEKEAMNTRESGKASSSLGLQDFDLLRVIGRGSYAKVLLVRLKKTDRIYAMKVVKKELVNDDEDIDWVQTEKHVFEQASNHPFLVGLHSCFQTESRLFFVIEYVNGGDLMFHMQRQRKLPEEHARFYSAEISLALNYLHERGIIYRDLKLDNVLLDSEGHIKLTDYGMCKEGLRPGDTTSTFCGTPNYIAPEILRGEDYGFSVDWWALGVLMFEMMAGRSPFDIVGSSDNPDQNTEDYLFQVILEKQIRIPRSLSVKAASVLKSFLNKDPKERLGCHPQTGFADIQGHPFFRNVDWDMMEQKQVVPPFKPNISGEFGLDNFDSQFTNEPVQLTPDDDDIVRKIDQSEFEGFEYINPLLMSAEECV

For `COc1cc2c(Nc3cccc(Cl)c3F)c(C#N)cnc2cc1OCCON1CCN(C)CC1` [11a, 4-((3-Chloro-2-fluorophenyl)amino)-6-methoxy-7-(2-((4-methylpiperazin-1-yl)oxy)ethoxy)quinoline-3-carbonitrile], the P-gp efflux status (MDCKII-MDR1 cells [1]) was “Moderate P-gp Substrate”, the “Recovery% (BL-AP)” value (MDCKII-MDR1 cells [1]) was 85.59% and the “MDCKII-MDR1 Efflux Ratio” value (MDCKII-MDR1 cells [1]) was 4.1. For the same molecule, the “Activity in Ph+ CML” value (Ph+ CML) was “Poor Activity”, the “Remaining Percentages” value ([2]; 0.5 min) was 100.00% and the “Remaining Percentages” value ([2]; 15 min) was 82.49%. The “Remaining Percentages” value ([2]; 30 min) was 66.92%, the “Remaining Percentages” value ([2]; 60 min) was 45.06% and the “Remaining Percentages” value ([2]; 90 min) was 29.85%. The “Remaining Percentages” value ([2]; 120 min) was 18.60%, the hepatocyte CLint [2] was 27.9 µL/min/1e6 cells and the “t1/2 (H)” value [2] was 49.7 min. The recovery (in vitro [3]) was 71.6%, the Papp A→B (MDR1) was 71.6 nm/s and the Papp B→A (MDR1) was 296 nm/s. The efflux ratio (MDR1) was 4.15, the Papp A→B (MDR1 (P-gp)) was 72 nm/s and the Papp B→A (MDR1 (P-gp)) was 296 nm/s. The logD (Lipophilicity logD7.4) was 3.3, the Papp A→B (in vitro [4]) was 36.6 nm/s and the Papp B→A (in vitro [4]) was 274 nm/s. The efflux ratio (in vitro [4]) was 7.4, the recovery (in vitro [4]) was 60.5% and the “Aq. Sol.” value (Aqueous solubility) was 14 µM. For the same molecule, the “Abraham ANMR Value (aniline N-H)” value [5] was 0.40, the “Recovery% (BL-AP)” value (Caco-2 cells) was 80.51% and the “efflux ratio” value (Caco-2 cells) was 7.49. The “Caco-2 Papp (a-b)” value (Caco-2 cells) was 37 nm/s and the “Caco-2 Papp (b-a)” value (Caco-2 cells) was 274 nm/s.

In the case of `COc1cc(Nc2c(C#N)cnc3cc(OCCON4CCN(C)CC4)c(OC)cc23)c(F)cc1Cl` [8a, 4-((4-Chloro-2-fluoro-5-methoxyphenyl)amino)-6-methoxy-7-(2-((4-methylpiperazin-1-yl)oxy)ethoxy)quinoline-3-carbonitrile], the P-gp efflux status (MDCKII-MDR1 cells [1]) was “P-gp Substrate”, the “Recovery% (BL-AP)” value (MDCKII-MDR1 cells [1]) was 64.87% and the “MDCKII-MDR1 Efflux Ratio” value (MDCKII-MDR1 cells [1]) was 27.6. The “Activity in Ph+ CML” value (Ph+ CML) was “Moderate Activity”, the pIC50 (cSRC wt) was 8.70 and the “Remaining Percentages” value ([2]; 0.5 min) was 100.00%. The “Remaining Percentages” value ([2]; 15 min) was 69.28%, the “Remaining Percentages” value ([2]; 30 min) was 52.48% and the “Remaining Percentages” value ([2]; 60 min) was 29.45%. For the same molecule, the “Remaining Percentages” value ([2]; 90 min) was 15.72%, the “Remaining Percentages” value ([2]; 120 min) was 9.48% and the hepatocyte CLint [2] was 40.5 µL/min/1e6 cells. The “t1/2 (H)” value [2] was 34.2 min, the pIC50 (BCR-ABL1 wt) was 9.00 and the recovery (in vitro [3]) was 79.8%. The Papp A→B (MDR1) was 7.3 nm/s, the efflux ratio (MDR1) was 26.4 and the Papp A→B (MDR1 (P-gp)) was 7 nm/s. For the same molecule, the Papp B→A (MDR1 (P-gp)) was 193 nm/s, the logD (Lipophilicity logD7.4) was 3.4 and the Papp A→B (in vitro [4]) was 19.4 nm/s. For the same molecule, the Papp B→A (in vitro [4]) was 121 nm/s, the efflux ratio (in vitro [4]) was 6.4 and the recovery (in vitro [4]) was 61.2%. For the same molecule, the “Aq. Sol.” value (Aqueous solubility) was 43 µM, the pIC50 (mutant BCR-ABL1 kinases) was > 9.00 and the “Abraham ANMR Value (aniline N-H)” value [5] was > 0.30 and 0.40. For the same molecule, the “Recovery% (BL-AP)” value (Caco-2 cells) was 72.31%, the “efflux ratio” value (Caco-2 cells) was 6.22 and the “Caco-2 Papp (a-b)” value (Caco-2 cells) was 19 nm/s. For the same molecule, the “Caco-2 Papp (b-a)” value (Caco-2 cells) was 121 nm/s, the fraction unbound ([6]; both sexes) was 0.0558 and the recovery ([6]; both sexes) was 99.9%. For the same molecule, the remaining at 6 h ([6]; both sexes, 6 h) was 92.7% and the “%Unbound” value [6] was 5.58%.

For `COc1cc(Nc2c(C#N)cnc3cc(OCCCN4CCN(C)CC4)c(OC)cc23)c(Cl)cc1Cl` [Bosutinib, bosutinib], the “%Recovery” value [7] is given as 94.01%, the “%Unbound” value [7] is given as 4.52% and the “Aq. Sol.” value [8] is given as 14 µM. For the same molecule, the “Papp(a-b)” value (MDCKII-MDR1 cells [9]; Table S7) was 0.38 10-6 cm/s, the “Recovery% (AP-BL)” value (MDCKII-MDR1 cells [9]; Table S7) was 56.02% and the “Recovery% (BL-AP)” value (MDCKII-MDR1 cells [9]; Table S7) was 65.52%. For the same molecule, the “MDCKII-MDR1 Papp (a-b)” value (MDCKII-MDR1 cells [9]; a-b) was 4 nm/s, the P-gp efflux status (MDCKII-MDR1 cells [9]) was “P-gp Substrate” and the logD7.4 [10] was 3.1. The P-gp efflux status (P-glycoprotein (P-gp)) was “P-gp Substrate”, the “Remaining Percentages” value ([11]; 0.5 min) was 100.00% and the “Remaining Percentages” value ([11]; 15 min) was 73.99%. The “Remaining Percentages” value ([11]; 60 min) was 53.95%, the “Remaining Percentages” value ([11]; 90 min) was 34.15% and the “Remaining Percentages” value ([11]; 120 min) was 20.73%.

In the case of `COc1cc2ncnc(Nc3cccc(Cl)c3F)c2cc1OCCON1CCN(C)CC1` [7a], the AMES [12] is listed as “Negative”, the Micronucleus [13] is listed as “Negative” and the P-gp efflux status (MDCKII-MDR1 cells [9]) is listed as “Not a P-gp Substrate”. The “Abraham ANMR Value (aniline N-H)” value [5] was > 0.30 and 0.31.

Molecule `COc1cc2c(Nc3ccc(Cl)c(OC)n3)c(C#N)cnc2cc1OCCON1CCN(C)CC1` [16a, 4-((5-Chloro-6-methoxypyridin-2-yl)amino)-6-methoxy-7-(2-((4-methylpiperazin-1-yl)oxy)ethoxy)quinoline-3-carbonitrile] has a remaining binding at 1 µM (PRKCQ) of 30%, a remaining binding at 1 µM (PRKD1) of 78% and a remaining binding at 1 µM (PRKCH) of 84%. It also gave a remaining binding at 1 µM (PFPK5(P.falciparum)) of 100%, a remaining binding at 1 µM (PRKCI) of 61% and a remaining binding at 1 µM (PRP4) of 33%. It also gave a remaining binding at 1 µM (PRKD3) of 58%, a remaining binding at 1 µM (PRKCD) of 42% and a remaining binding at 1 µM (CDC2L5) of 100%. For the same molecule, the remaining binding at 1 µM (PFCDPK1(P.falciparum)) was 18%, the remaining binding at 1 µM (PRKCE) was 70% and the remaining binding at 1 µM (PKNB(M.tuberculosis)) was 53%.
